From PubChem BioAssay AID1963971 (Molecular Pharmacology Branch, DTP, NCI, 2024)

Tested on: 953936-095-R-J2-PDC spheroids with HUVEC/MSC, viability
Assay: Anticancer human tumor 953936-095-R-J2-PDC patient-derived cervical squamous cell carcinoma cell line growth inhibition [PI3K]
Conditions: for viability, T/C: stronger effect = lower value
In short: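 Three cell types, namely tumor cells, endothelial cells and mesenchymal stem cells, formed each spheroid. Combinations with four PI3K inhibitors were screened at clinically achievable concentrations decreasing by half-log, and spheroid viability was recorded.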

[1] = curve of first compound, second compound 0.0316 µM
[2] = curve of first compound, second compound 0.1 µM
[3] = curve of first compound, second compound 0.316 µM
[4] = curve of first compound, second compound 1 µM
[5] = curve of first compound, second compound 3.16 µM
[6] = curve of first compound, second compound 10 µM
[7] = second compound 0.0316 µM, first compound 0.0316 µM
[8] = second compound 0.0316 µM, first compound 0.1 µM
[9] = second compound 0.1 µM, first compound 0.0316 µM
[10] = second compound 0.1 µM, first compound 0.1 µM
[11] = second compound 0.316 µM, first compound 0.0316 µM
[12] = second compound 0.316 µM, first compound 0.1 µM
[13] = second compound 1 µM, first compound 0.0316 µM
[14] = second compound 1 µM, first compound 0.1 µM
[15] = second compound 3.16 µM, first compound 0.0316 µM
[16] = second compound 3.16 µM, first compound 0.1 µM
[17] = second compound 10 µM, first compound 0.0316 µM
[18] = second compound 10 µM, first compound 0.1 µM
[19] = curve of first compound, second compound 0.00316 µM
[20] = curve of first compound, second compound 0.01 µM
[21] = second compound 0.00316 µM, first compound 0.0316 µM
[22] = second compound 0.00316 µM, first compound 0.1 µM
[23] = second compound 0.00316 µM, first compound 0.316 µM
[24] = second compound 0.00316 µM, first compound 1 µM
[25] = second compound 0.00316 µM, first compound 3.16 µM
[26] = second compound 0.00316 µM, first compound 10 µM
[27] = second compound 0.01 µM, first compound 0.0316 µM
[28] = second compound 0.01 µM, first compound 0.1 µM
[29] = second compound 0.01 µM, first compound 0.316 µM
[30] = second compound 0.01 µM, first compound 1 µM
[31] = second compound 0.01 µM, first compound 3.16 µM
[32] = second compound 0.01 µM, first compound 10 µM
[33] = second compound 0.0316 µM, first compound 0.316 µM
[34] = second compound 0.0316 µM, first compound 1 µM
[35] = second compound 0.0316 µM, first compound 3.16 µM
[36] = second compound 0.0316 µM, first compound 10 µM
[37] = second compound 0.1 µM, first compound 0.316 µM
[38] = second compound 0.1 µM, first compound 1 µM
[39] = second compound 0.1 µM, first compound 3.16 µM
[40] = second compound 0.1 µM, first compound 10 µM
[41] = second compound 0.316 µM, first compound 0.316 µM
[42] = second compound 0.316 µM, first compound 1 µM
[43] = second compound 0.316 µM, first compound 3.16 µM
[44] = second compound 0.316 µM, first compound 10 µM
[45] = second compound 1 µM, first compound 0.316 µM
[46] = second compound 1 µM, first compound 1 µM
[47] = second compound 1 µM, first compound 3.16 µM
[48] = second compound 1 µM, first compound 10 µM
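Further: spheroids exposed to compounds for seven days before read-out.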

Cn1ncnc1[C@H]1c2n[nH]c(=O)c3cc(F)cc(c23)N[C@@H]1c1ccc(F)cc1 + CC(Nc1ncnc2nc[nH]c12)c1cc2cccc(Cl)c2c(=O)n1-c1ccccc1
IC50 [1]: > 100 nM
IC50 [2]: > 100 nM
IC50 [3]: > 100 nM
IC50 [4]: > 100 nM
IC50 [5]: > 100 nM
IC50 [6]: > 100 nM
viability, T/C (second compound 0.0316 µM, first compound 0.000316 µM): 110%
viability, T/C (second compound 0.0316 µM, first compound 0.001 µM): 95.1%
viability, T/C (second compound 0.0316 µM, first compound 0.00316 µM): 104%
viability, T/C (second compound 0.0316 µM, first compound 0.01 µM): 98.8%
viability, T/C [7]: 91.7%
viability, T/C [8]: 96.7%
viability, T/C (second compound 0.1 µM, first compound 0.000316 µM): 100%
viability, T/C (second compound 0.1 µM, first compound 0.001 µM): 99.3%
viability, T/C (second compound 0.1 µM, first compound 0.00316 µM): 105%
viability, T/C (second compound 0.1 µM, first compound 0.01 µM): 99.7%
viability, T/C [9]: 101%
viability, T/C [10]: 90.1%
viability, T/C (second compound 0.316 µM, first compound 0.000316 µM): 99.5%
viability, T/C (second compound 0.316 µM, first compound 0.001 µM): 96.8%
viability, T/C (second compound 0.316 µM, first compound 0.00316 µM): 110%
viability, T/C (second compound 0.316 µM, first compound 0.01 µM): 92.9%
viability, T/C [11]: 101%
viability, T/C [12]: 91.9%
viability, T/C (second compound 1 µM, first compound 0.000316 µM): 104%
viability, T/C (second compound 1 µM, first compound 0.001 µM): 90.7%
viability, T/C (second compound 1 µM, first compound 0.00316 µM): 90.2%
viability, T/C (second compound 1 µM, first compound 0.01 µM): 84%
viability, T/C [13]: 101%
viability, T/C [14]: 86.9%
viability, T/C (second compound 3.16 µM, first compound 0.000316 µM): 87.2%
viability, T/C (second compound 3.16 µM, first compound 0.001 µM): 78.5%
viability, T/C (second compound 3.16 µM, first compound 0.00316 µM): 79.8%
viability, T/C (second compound 3.16 µM, first compound 0.01 µM): 81.5%
viability, T/C [15]: 78%
viability, T/C [16]: 81.3%
viability, T/C (second compound 10 µM, first compound 0.000316 µM): 56.8%
viability, T/C (second compound 10 µM, first compound 0.001 µM): 57.8%
viability, T/C (second compound 10 µM, first compound 0.00316 µM): 56.9%
viability, T/C (second compound 10 µM, first compound 0.01 µM): 61.9%
viability, T/C [17]: 58.7%
viability, T/C [18]: 58.9%

CC1(C)CCC(CN2CCN(c3ccc(C(=O)NS(=O)(=O)c4ccc(NCC5CCOCC5)c([N+](=O)[O-])c4)c(Oc4cnc5[nH]ccc5c4)c3)CC2)=C(c2ccc(Cl)cc2)C1 + CC(Nc1ccc2c(c1)OCCn1cc(N3C(=O)OCC3C(F)F)nc1-2)C(N)=O
IC50 [19]: 6920 nM
IC50 [20]: 8420 nM
IC50 [1]: 8120 nM
IC50 [2]: > 10000 nM
IC50 [3]: < 31.6 nM
IC50 [4]: < 31.6 nM
viability, T/C [21]: 88.4%
viability, T/C [22]: 89.8%
viability, T/C [23]: 90.4%
viability, T/C [24]: 100%
viability, T/C [25]: 142%
viability, T/C [26]: 25.5%
viability, T/C [27]: 90.2%
viability, T/C [28]: 88.9%
viability, T/C [29]: 92.3%
viability, T/C [30]: 93.6%
viability, T/C [31]: 115%
viability, T/C [32]: 41.9%
viability, T/C [7]: 77%
viability, T/C [8]: 74.6%
viability, T/C [33]: 75.8%
viability, T/C [34]: 75.8%
viability, T/C [35]: 85%
viability, T/C [36]: 44%
viability, T/C [9]: 57.7%
viability, T/C [10]: 53%
viability, T/C [37]: 53.1%
viability, T/C [38]: 59.4%
viability, T/C [39]: 59.5%
viability, T/C [40]: 48.3%
viability, T/C [11]: 35.7%
viability, T/C [12]: 36%
viability, T/C [41]: 33.5%
viability, T/C [42]: 31.8%
viability, T/C [43]: 32.5%
viability, T/C [44]: 36.9%
viability, T/C [13]: 22.3%
viability, T/C [14]: 24.4%
viability, T/C [45]: 21.2%
viability, T/C [46]: 22.1%
viability, T/C [47]: 22.1%
viability, T/C [48]: 21.7%

C=CC(=O)N1CCN(c2nc(=O)n(-c3c(C)ccnc3C(C)C)c3nc(-c4c(O)cccc4F)c(F)cc23)C(C)C1 (stereo not given) + COc1c(OCCCN2CCOCC2)ccc2c3n(c(=NC(=O)c4cnc(N)nc4)nc12)CCN3
IC50 [19]: > 10000 nM
IC50 [20]: > 10000 nM
IC50 [1]: < 31.6 nM
IC50 [2]: < 31.6 nM
IC50 [3]: < 31.6 nM
IC50 [4]: < 31.6 nM
viability, T/C [21]: 88.7%
viability, T/C [22]: 91%
viability, T/C [23]: 108%
viability, T/C [24]: 106%
viability, T/C [25]: 101%
viability, T/C [26]: 93.1%
viability, T/C [27]: 72.8%
viability, T/C [28]: 79%
viability, T/C [29]: 79.3%
viability, T/C [30]: 84%
viability, T/C [31]: 89.9%
viability, T/C [32]: 91.9%
viability, T/C [7]: 41.4%
viability, T/C [8]: 43.6%
viability, T/C [33]: 44.4%
viability, T/C [34]: 46%
viability, T/C [35]: 51.2%
viability, T/C [36]: 45.1%
viability, T/C [9]: 18.6%
viability, T/C [10]: 18.4%
viability, T/C [37]: 18.4%
viability, T/C [38]: 20.2%
viability, T/C [39]: 20.4%
viability, T/C [40]: 15.2%
viability, T/C [11]: 7.53%
viability, T/C [12]: 7.13%
viability, T/C [41]: 6.33%
viability, T/C [42]: 6.9%
viability, T/C [43]: 6.5%
viability, T/C [44]: 3.82%
viability, T/C [13]: 1.94%
viability, T/C [14]: 1.84%
viability, T/C [45]: 1.67%
viability, T/C [46]: 1.83%
viability, T/C [47]: 1.85%
viability, T/C [48]: 1.04%

CC(C)n1nc(-c2ccc3oc(N)nc3c2)c2c(N)ncnc21
viability, T/C (compound 0.000316 µM): 91% [middle of 4 runs]
viability, T/C (compound 0.001 µM): 92.7% [middle of 4 runs]
viability, T/C (compound 0.00316 µM): 88.9% [middle of 4 runs]
viability, T/C (compound 0.01 µM): 73.4% [middle of 4 runs]
viability, T/C (compound 0.0316 µM): 50.6% [middle of 4 runs]
viability, T/C (compound 0.1 µM): 17.6% [middle of 4 runs]
IC50 (curve of compound): 32.4 nM [middle of 4 runs]

CC1(C)CCC(Nc2ncc(C(F)(F)F)c(-c3c[nH]c4c(P(C)(C)=O)c(C#N)ccc34)n2)CN1 (stereo not given) + CC(Nc1ncnc2nc[nH]c12)c1cc2cccc(Cl)c2c(=O)n1-c1ccccc1
IC50 [1]: 3670 nM
IC50 [2]: 3370 nM
IC50 [3]: 3390 nM
IC50 [4]: 1780 nM
IC50 [5]: < 31.6 nM
IC50 [6]: < 31.6 nM
viability, T/C [7]: 52.6%
viability, T/C [8]: 55.8%
viability, T/C [33]: 57.6%
viability, T/C [34]: 61.3%
viability, T/C [35]: 56.1%
viability, T/C [36]: 7.92%
viability, T/C [9]: 52.2%
viability, T/C [10]: 53.5%
viability, T/C [37]: 53.7%
viability, T/C [38]: 62.5%
viability, T/C [39]: 51.9%
viability, T/C [40]: 6.89%
viability, T/C [11]: 60.1%
viability, T/C [12]: 53.2%
viability, T/C [41]: 44.6%
viability, T/C [42]: 49.9%
viability, T/C [43]: 56.3%
viability, T/C [44]: 6.08%
viability, T/C [13]: 59.9%
viability, T/C [14]: 49.7%
viability, T/C [45]: 49.2%
viability, T/C [46]: 46.3%
viability, T/C [47]: 49.2%
viability, T/C [48]: 5.38%
viability, T/C [15]: 45.9%
viability, T/C [16]: 46.7%
viability, T/C (second compound 3.16 µM, first compound 0.316 µM): 49.3%
viability, T/C (second compound 3.16 µM, first compound 1 µM): 44.5%
viability, T/C (second compound 3.16 µM, first compound 3.16 µM): 45.7%
viability, T/C (second compound 3.16 µM, first compound 10 µM): 3.11%
viability, T/C [17]: 38%
viability, T/C [18]: 36.5%
viability, T/C (second compound 10 µM, first compound 0.316 µM): 38.4%
viability, T/C (second compound 10 µM, first compound 1 µM): 39.6%
viability, T/C (second compound 10 µM, first compound 3.16 µM): 42.1%
viability, T/C (second compound 10 µM, first compound 10 µM): 1.76%
